# Key:
# [1] = tested on: murine microglial N9 cells; settings: LPS 100 ng/mL, 24 h; for TREM2 and TGFβ2 expression: 1-5 μM
# [2] = target: T1, hBChE (Homo sapiens, UniProt P06276)
# [3] = target: T1, hBChE; remark: listed apart in the source
# [4] = tested on: Aβ25–35-induced learning impairments in mice; settings: 3 mg/kg IP
# [5] = target: hCB2R (Homo sapiens, UniProt P34972)
# [6] = target: rCB1R (Rattus norvegicus, UniProt P20272)
# Chain of rCB1R (P20272 whole entry): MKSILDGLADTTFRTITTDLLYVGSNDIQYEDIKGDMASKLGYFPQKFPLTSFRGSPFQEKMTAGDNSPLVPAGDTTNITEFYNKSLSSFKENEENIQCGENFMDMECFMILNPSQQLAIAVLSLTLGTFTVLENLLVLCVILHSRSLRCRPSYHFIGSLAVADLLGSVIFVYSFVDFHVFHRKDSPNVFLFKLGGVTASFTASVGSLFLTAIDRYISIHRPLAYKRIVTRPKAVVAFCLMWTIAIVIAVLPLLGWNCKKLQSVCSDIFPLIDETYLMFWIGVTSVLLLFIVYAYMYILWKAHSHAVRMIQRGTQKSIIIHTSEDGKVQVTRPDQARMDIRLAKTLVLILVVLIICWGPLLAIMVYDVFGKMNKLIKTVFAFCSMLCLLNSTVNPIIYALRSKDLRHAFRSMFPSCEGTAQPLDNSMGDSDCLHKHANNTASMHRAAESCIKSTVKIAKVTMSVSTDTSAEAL
# T1 sequence (P06276 29-602): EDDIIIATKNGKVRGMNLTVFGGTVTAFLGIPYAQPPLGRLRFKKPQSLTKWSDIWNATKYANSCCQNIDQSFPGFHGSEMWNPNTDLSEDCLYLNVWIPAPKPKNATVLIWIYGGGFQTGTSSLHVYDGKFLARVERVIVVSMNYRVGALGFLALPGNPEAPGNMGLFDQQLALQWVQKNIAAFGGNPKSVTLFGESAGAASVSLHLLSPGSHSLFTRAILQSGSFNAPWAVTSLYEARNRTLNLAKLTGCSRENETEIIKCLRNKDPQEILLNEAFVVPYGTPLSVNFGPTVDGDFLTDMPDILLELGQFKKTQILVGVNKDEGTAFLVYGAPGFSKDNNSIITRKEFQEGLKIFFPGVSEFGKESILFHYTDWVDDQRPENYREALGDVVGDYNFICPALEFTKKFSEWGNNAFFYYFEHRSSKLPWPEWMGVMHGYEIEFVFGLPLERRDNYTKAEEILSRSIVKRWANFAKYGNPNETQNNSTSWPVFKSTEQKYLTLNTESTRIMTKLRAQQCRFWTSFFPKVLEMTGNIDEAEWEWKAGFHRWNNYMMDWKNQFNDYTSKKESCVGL
# Chain of hCB2R (P34972 whole entry): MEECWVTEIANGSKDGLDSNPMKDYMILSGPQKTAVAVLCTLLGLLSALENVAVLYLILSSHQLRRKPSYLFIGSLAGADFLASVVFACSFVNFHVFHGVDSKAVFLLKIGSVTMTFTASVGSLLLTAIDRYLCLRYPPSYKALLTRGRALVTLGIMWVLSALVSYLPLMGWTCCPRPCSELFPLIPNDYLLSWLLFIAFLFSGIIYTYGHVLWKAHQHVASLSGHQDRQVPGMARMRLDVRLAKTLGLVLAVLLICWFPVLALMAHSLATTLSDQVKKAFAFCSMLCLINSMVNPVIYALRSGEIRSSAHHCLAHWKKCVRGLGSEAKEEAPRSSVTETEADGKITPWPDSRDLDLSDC
compound,measurement,setting,value
"CCOc1ccc(Cc2nc3cc(OC(=O)N4CCC4)ccc3n2CCC(C)C)cc1 [21d, 2-(4-Ethoxybenzyl)-1-isopentyl-1H-benzo[d]imidazole-5-yl Azetidine-1-carboxylate]",TREM2 and TGFβ2 expression,[1],No parallel change
same,concentration significantly decreasing expression of (i)NOS,[1]; Western blot,2.5 µM
same,concentration significantly reducing IL1β release,[1]; Western blot,1.0 µM
"CCOc1ccc(Cc2nc3cc(OC(=O)N(C)C)ccc3n2CCC(C)C)cc1 [21a, 2-(4-Ethoxybenzyl)-1-isopentyl-1H-benzo[d]imidazole-5-yl dimethylcarbamate]",fold less active on hBChE than counterpart 15d,[2],more than 100 fold
"CCN(CC)C(=O)c1ccc2c(c1)nc(Cc1ccc(OC(=O)N(C)C)cc1)n2CCC(C)C [15d, 4-((5-(Diethylcarbamoyl)-1-isopentyl-1H-benzo[d]imidazole-2-yl)methyl)phenyl dimethylcarbamate]","νmax, times higher than compound 21d",[3],15
same,"effect of highest dose on Aβ25–35-induced learning deficits, passive avoidance",[4],complete blockade
same,TREM2 and TGFβ2 expression,[1],No parallel change
same,concentration significantly decreasing expression of (i)NOS,[1]; Western blot,1.0 µM
CCOc1ccc(Cc2nc3cc(C(=O)N(CC)CC)ccc3n2CCC(C)C)cc1 [compound 4],agonist character in calcium mobilization,[5],full agonist
"CCOc1ccc(Cc2nc3cc(OC(=O)N(C)CC)ccc3n2CCC(C)C)cc1 [21b, 2-(4-Ethoxybenzyl)-1-isopentyl-1H-benzo[d]imidazole-5-yl ethyl(methyl)carbamate]",affinity toward CB1R (in words),[6],only exception
